Laboratory results published in the supplement of paper PMC10307832.

Tests used:
Experiment in all cases: relative viability (nuclei count vs DMSO), 5 days (fraction); higher = more cells survive
[1] = compound: CNC(=O)c1ccccc1Sc1ccc2c(/C=C/c3ccccn3)n[nH]c2c1 [Axitinib] + CC(C)C[C@H](NC(=O)[C@H](Cc1ccccc1)NC(=O)c1cnccn1)B(O)O [Bortezomib] (partner 0.002 µM)
Method in brief: (§1)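 The day after seeding in 1536-well plates, lung cancer cell lines were treated by pin tool with a single drug, or with a fixed anchor-drug dose together with five library-drug doses (not always all listed) in √10 steps. After 5 days, a combined fix-and-stain solution (final 0.05% Triton X-100, 1% formaldehyde, 1 ug/ml Hoechst) was added. Nuclei counted on 4× images gave relative viability as treated counts over vehicle counts, reported as the median of duplicate plates.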

[2] = compound: CC1=CC=C(C=C1)C(=O)CN2C3=C(CCCC3)SC2=N [Pifithrin_alpha] + CS(=O)(=O)CCNCc1ccc(-c2ccc3ncnc(Nc4ccc(OCc5cccc(F)c5)c(Cl)c4)c3c2)o1 [Lapatinib] (partner 2 µM)
Method in brief: as §1

[3] = compound: CC1=CC=C(C=C1)C(=O)CN2C3=C(CCCC3)SC2=N [Pifithrin_alpha] + CC1(C)CCC(c2ccc(Cl)cc2)=C(CN2CCN(c3ccc(C(=O)NS(=O)(=O)c4ccc(N[C@H](CCN5CCOCC5)CSc5ccccc5)c(S(=O)(=O)C(F)(F)F)c4)cc3)CC2)C1 [Navitoclax] (partner 0.5 µM)
Method in brief: as §1

[4] = compound: CNC(=O)c1ccccc1Sc1ccc2c(/C=C/c3ccccn3)n[nH]c2c1 [Axitinib] + C[C@]1(O)C[C@@H](c2nc(-c3ccc4ccc(-c5ccccc5)nc4c3)c3c(N)nccn32)C1 [Linsitinib] (partner 1 µM)
Method in brief: as §1

Cell Line | relative viability ([1]; first compound 0.005 µM) | relative viability ([1]; first compound 0.01581 µM) | relative viability ([1]; first compound 0.05 µM) | relative viability ([1]; first compound 0.1581 µM) | relative viability ([1]; first compound 0.5 µM) | relative viability ([2]; first compound 3.162 µM) | relative viability ([2]; first compound 10 µM) | relative viability ([2]; first compound 31.62 µM) | relative viability ([2]; first compound 100 µM) | relative viability ([3]; first compound 3.162 µM) | relative viability ([3]; first compound 10 µM) | relative viability ([3]; first compound 31.62 µM) | relative viability ([3]; first compound 100 µM) | relative viability ([4]; first compound 0.005 µM) | relative viability ([4]; first compound 0.01581 µM) | relative viability ([4]; first compound 0.05 µM) | relative viability ([4]; first compound 0.1581 µM) | relative viability ([4]; first compound 0.5 µM) | relative viability ([2]; first compound 1 µM) | relative viability ([3]; first compound 1 µM)
NCI-H1993 | 1.21 | 1.3 | 1.14 | 1.18 | 0.913 | 0.761 | 0.73 | 0.764 | 0.777 | 0.79 | 0.594 | 0.718 | 0.639 | 0.725 | 0.745 | 0.773 | 0.79 | 0.826 |  | 
CAL-12T | 1.03 | 0.978 | 0.955 | 1.11 | 0.965 | 0.614 | 0.696 | 0.441 | 0.447 | 1.22 | 1.16 | 0.686 | 1.15 | 0.873 | 0.903 | 0.748 | 0.911 | 0.712 | 0.624 | 
H3255 | 0.672 | 0.778 | 0.856 | 0.962 | 0.6 | 0.208 | 0.267 | 0.244 | 0.192 | 0.428 | 0.444 | 0.434 | 0.497 | 1.08 | 0.797 | 0.83 | 0.917 | 1.03 | 0.13 | 0.376
NCI-H2228 | 1.31 | 0.829 | 0.886 | 0.954 | 1.07 | 1.19 | 0.848 | 0.747 | 0.904 | 0.839 | 0.804 | 0.599 | 0.729 | 0.674 | 0.625 | 0.633 | 0.735 | 0.58 | 1.25 | 0.88
NCI-H727 | 1.1 | 0.854 | 1 | 0.868 | 0.795 | 0.903 | 0.695 | 0.555 | 0.565 | 0.412 | 0.307 | 0.244 | 0.271 | 0.415 | 0.246 | 0.311 | 0.246 | 0.432 | 0.884 | 0.356
NCI-H1355 | 1.26 | 1.13 | 1.32 | 1.17 | 1.15 | 0.756 | 0.699 | 0.616 | 0.702 | 0.675 | 0.692 | 0.556 | 0.563 | 0.834 | 0.811 | 0.845 | 0.865 | 0.819 | 0.765 | 0.812
LXF-289 | 0.977 | 0.918 | 0.974 | 0.974 | 1 | 0.979 | 0.85 | 0.749 | 0.837 | 1.01 | 0.96 | 0.793 | 0.901 | 0.991 | 0.952 | 0.972 | 0.962 | 0.968 | 0.912 | 0.984
